Laboratory results: the supplement of paper PMC10307832

Key:
Assay in all cases: relative viability (nuclei count vs DMSO), 5 days (fraction); higher = more cells survive
XMD14-99 + Lapatinib = compound: CN1CCN(CC1)C2=CC(=C(C=C2)NC3=NC(=C(S3)C(=O)C4=C(C=CC=C4Cl)Cl)N)OC [XMD14-99] + CS(=O)(=O)CCNCc1ccc(-c2ccc3ncnc(Nc4ccc(OCc5cccc(F)c5)c(Cl)c4)c3c2)o1 [Lapatinib] (partner 2 µM)
Summary of the method: (§1)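 Medians of duplicate plates are given as relative viability. That measure is the nuclei count in treated wells divided by the count in vehicle wells. Counts were taken on 4× images of lung cancer cell lines in 1536-well plates, 5 days after pin-tool dosing the day after seeding with one drug alone or a fixed anchor-drug dose plus five library-drug doses (not always all listed) in √10 steps.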

AZD1208 + Tozasertib = compound: N[C@@H]1CCCN(c2c(/C=C3\SC(=O)NC3=O)cccc2-c2ccccc2)C1 [AZD1208] + Cc1cc(Nc2cc(N3CCN(C)CC3)nc(Sc3ccc(NC(=O)C4CC4)cc3)n2)n[nH]1 [Tozasertib] (partner 0.1 µM)
Summary of the method: as §1

AZD1208 + Alpelisib = compound: N[C@@H]1CCCN(c2c(/C=C3\SC(=O)NC3=O)cccc2-c2ccccc2)C1 [AZD1208] + Cc1nc(NC(=O)N2CCC[C@H]2C(N)=O)sc1-c1ccnc(C(C)(C)C(F)(F)F)c1 [Alpelisib] (partner 2 µM)
Summary of the method: as §1

AZD1208 + Olaparib = compound: N[C@@H]1CCCN(c2c(/C=C3\SC(=O)NC3=O)cccc2-c2ccccc2)C1 [AZD1208] + O=C(c1cc(Cc2n[nH]c(=O)c3ccccc23)ccc1F)N1CCN(C(=O)C2CC2)CC1 [Olaparib] (partner 8 µM)
Summary of the method: as §1

Cell Line | relative viability (XMD14-99 + Lapatinib; first compound 0.08 µM) | relative viability (XMD14-99 + Lapatinib; first compound 0.8 µM) | relative viability (XMD14-99 + Lapatinib; first compound 2.53 µM) | relative viability (XMD14-99 + Lapatinib; first compound 8 µM) | relative viability (AZD1208 + Tozasertib; first compound 0.08 µM) | relative viability (AZD1208 + Tozasertib; first compound 0.253 µM) | relative viability (AZD1208 + Tozasertib; first compound 0.8 µM) | relative viability (AZD1208 + Tozasertib; first compound 2.53 µM) | relative viability (AZD1208 + Tozasertib; first compound 8 µM) | relative viability (AZD1208 + Alpelisib; first compound 0.08 µM) | relative viability (AZD1208 + Alpelisib; first compound 0.253 µM) | relative viability (AZD1208 + Alpelisib; first compound 0.8 µM) | relative viability (AZD1208 + Alpelisib; first compound 2.53 µM) | relative viability (AZD1208 + Alpelisib; first compound 8 µM) | relative viability (AZD1208 + Olaparib; first compound 0.08 µM) | relative viability (AZD1208 + Olaparib; first compound 0.253 µM) | relative viability (AZD1208 + Olaparib; first compound 0.8 µM) | relative viability (AZD1208 + Olaparib; first compound 2.53 µM) | relative viability (AZD1208 + Olaparib; first compound 8 µM)
NCI-H1734 | 1.01 | 0.997 | 1.05 | 0.825 | 0.272 | 0.26 | 0.247 | 0.219 | 0.227 | 0.614 | 0.619 | 0.557 | 0.556 | 0.434 | 0.679 | 0.575 | 0.554 | 0.544 | 0.449
NCI-H1755 | 1.08 | 1.01 | 0.955 | 0.827 | 0.525 | 0.532 | 0.52 | 0.417 | 0.358 | 0.933 | 1.02 | 0.858 | 0.859 | 0.741 | 0.835 | 0.83 | 0.841 | 0.849 | 0.66
NCI-H1793 | 0.646 | 0.729 | 0.647 | 0.633 | 0.302 | 0.313 | 0.314 | 0.296 | 0.267 | 0.639 | 0.778 | 0.664 | 0.507 | 0.498 | 0.878 | 0.649 | 0.767 | 0.744 | 0.675
NCI-H1915 | 1 | 0.974 | 0.959 | 0.911 | 0.427 | 0.378 | 0.367 | 0.249 | 0.244 | 1.05 | 1.09 | 1.05 | 1.03 | 1.03 | 0.251 | 0.236 | 0.261 | 0.218 | 0.238
NCI-H1944 | 0.748 | 0.828 | 0.843 | 0.613 | 0.242 | 0.225 | 0.226 | 0.214 | 0.202 | 0.864 | 0.762 | 0.715 | 0.726 | 0.6 | 0.387 | 0.411 | 0.361 | 0.373 | 0.344
NCI-H1975 | 0.906 | 0.938 | 0.801 | 0.727 | 0.735 | 0.712 | 0.736 | 0.829 | 0.639 | 0.603 | 0.64 | 0.617 | 0.63 | 0.607 | 0.734 | 0.755 | 0.766 | 0.883 | 0.793
NCI-H1993 | 0.881 | 0.767 | 0.749 | 0.745 | 0.667 | 0.52 | 0.526 | 0.566 | 0.543 | – | 0.608 | 0.683 | 0.737 | 0.63 | 0.777 | 0.973 | 0.911 | 0.968 | 0.736
NCI-H2009 | 1.03 | 0.997 | 0.834 | 0.666 | 0.696 | 0.785 | 0.667 | 0.684 | 0.597 | 1.13 | 1.17 | 1.07 | 1.13 | 1.13 | 0.701 | 0.81 | 0.698 | 0.673 | 0.647
NCI-H2023 | 0.737 | 0.989 | 0.828 | 0.372 | 0.389 | 0.235 | 0.254 | 0.219 | 0.181 | 0.512 | 0.448 | 0.396 | 0.461 | 0.45 | 0.473 | 0.51 | 0.416 | 0.44 | 0.366
NCI-H2085 | 0.76 | 0.794 | 0.735 | 0.693 | 0.811 | 0.858 | 0.714 | 0.868 | 0.771 | 0.921 | 0.979 | 0.885 | 1.02 | 1.03 | 0.769 | 0.913 | 0.79 | 0.764 | 0.849
NCI-H2087 | 1.07 | 1.08 | 0.842 | 0.702 | 0.245 | 0.2 | 0.264 | 0.209 | 0.212 | 1.04 | 1.03 | 1.09 | 1.13 | 0.963 | 0.543 | 0.548 | 0.513 | 0.515 | 0.435
NCI-H2126 | 0.77 | 0.756 | 0.765 | 0.701 | 0.743 | 0.784 | 0.816 | 0.632 | 0.66 | 0.703 | 0.724 | 0.652 | 0.642 | 0.624 | 0.944 | 0.917 | 0.759 | 0.912 | 0.828
NCI-H2170 | 0.263 | 0.27 | 0.245 | 0.259 | 0.718 | 0.707 | 0.614 | 0.447 | 0.306 | 0.747 | 0.8 | 0.707 | 0.567 | 0.52 | 0.683 | 0.697 | 0.55 | 0.552 | 0.385
NCI-H2228 | 0.952 | 0.9 | 0.811 | 0.291 | 0.258 | 0.165 | 0.168 | 0.172 | 0.108 | 0.706 | 0.629 | 0.609 | – | 0.466 | 0.557 | 0.754 | 0.584 | 0.527 | 0.673
NCI-H2347 | 0.957 | 0.907 | 0.793 | 0.659 | 0.364 | 0.523 | 0.524 | 0.687 | 0.502 | 1.01 | 0.936 | 1.07 | 0.904 | 0.96 | 0.614 | 0.628 | 0.518 | 0.541 | 0.538
NCI-H2405 | 1.1 | 1.16 | 0.971 | 0.778 | 0.726 | 0.721 | 0.693 | 0.71 | 0.635 | 0.692 | 0.727 | 0.637 | 0.728 | 0.723 | 0.806 | 0.837 | 0.813 | 0.813 | 0.891
NCI-H3122 | 0.982 | 0.965 | 0.879 | 0.746 | 0.402 | 0.315 | 0.353 | 0.348 | 0.369 | 0.686 | 0.68 | 0.647 | 0.583 | 0.722 | 0.691 | 0.677 | 0.615 | 0.608 | 0.691
